{"source": "patent US11834696B2", "about": "“Antimicrobial susceptibility testing with large-volume light scattering imaging and deep learning video microscopy” (Arizona Board of Regents on behalf of Arizona State …, priority 2017, dated 2023)", "key": {"E. coli [1]": {"test_system": "E. coli", "assay": "AST without DL (division feature only, cell counting from the videos)", "format": "cell-based, Escherichia coli (ATCC 43888)", "conditions": "for MIC: Escherichia coli", "experimental": "To further validate the DLVM-AST method, we counted the total number of bacteria cells (Ntotal) from the videos (as shown in FIG. 9), and plotted Ntotal (mean±std) vs. time for PMB at various concentrations (as shown in FIG. 11C).\nGrowth and preparation of E. coli. Frozen E. coli strains were thawed, and 50 μL of which were cultured in 5 mL of Luria-Bertani (LB) medium (Per liter: 10 g peptone 140, 5 g yeast extract, and 5 g sodium chloride) at 37° C. and 150 rpm for 16 hours. Saturated cultures in the volume of 20 μL were diluted into 5 mL of fresh LB medium, and growth continued at 37° C. with 150 rpm for 1 hour to attain a logarithmic phase of growth. Bacterial cells were collected by centrifugation at 450 g for 5 min and suspended in urine to a concentration of 2×10^7 cells/mL^36. This concentration was determined by measuring the extinction coefficients for E. coli from the Optical Density (OD600) reading taken with a spectrophototometer (NanoDrop™ 2000/2000c Spectrophotometers, Thermo Scientific). The calibration factor for bacterial cell cultures estimation was 8×10^8 cells/mL per OD600 unit. Before use, the bacteria-spiked urine samples were filtered using a 5 μm syringe filter (EMD Millipore) to remove large particles.\nAST with video microscopy. The microfluidic chip was placed on an inverted microscope (Olympus IX-81) with a 40× phase contrast objective lens and imaged with a CCD camera (Pike-032B, Allied Vision Technologies, Newburyport, Mass.). A 200-μL bacterial suspension (2×10^7 cells/mL) was mixed with an equal volume of antibiotic solution for each antibiotic concentration or an equal volume of water as a control experiment. These mixed solutions were injected into different microfluidic channels simultaneously. After the microfluidic channels were fulfilled with these mixed solutions, two microfluidic valves of each detection channel were closed simultaneously to generate a stable microenvironment. Videos of the bacterial cells were recorded at 100 frames per second (fps) immediately (0 min) and after every 30 min. Each video lasted for 30 seconds. The raw images were batch-converted to 16-bit tiff format using a Matlab program and pre-processed to minimize background artifacts before being processed with the DL model. To include enough cells for reliable results, we integrated bacterial cells from three videos recorded from different experiments. Each experiment was repeated independently for three times."}, "E. coli [2]": {"test_system": "E. coli", "assay": "Deep learning video microscopy-based antimicrobial susceptibility testing (DLVM-AST)", "format": "cell-based, Escherichia coli (ATCC 43888)", "conditions": "for MIC: Escherichia coli"}, "E. coli [3]": {"test_system": "E. coli", "assay": "microbe, parasite or virus in culture", "format": "cell-based, Escherichia coli (ATCC 43888)", "conditions": "broth macrodilution, 37° C., triplicate; for MIC: Escherichia coli", "experimental": "AST with broth macrodilution (BMD) method. For comparison, AST was also performed by the BMD method (CLSI gold standard^35). The adjusted inoculum E. coli suspension is diluted in Cation-adjusted Mueller Hinton Broth (CAMHB, Sigma-Aldrich) and the concentration of E. coli cell cultures are adjusted to 1×10^6 cells/mL based on UV-Vis spectrophotometer (NanoDrop 2000, Thermo Fisher) readings at OD600. […] After inoculation, each tube contains approximately 5×10^5 cells/mL. […] This test was performed in triplicate."}, "E. coli [4]": {"test_system": "E. coli", "assay": "Phenotypic features (motion, morphology) in recorded bacteria videos in presence of antibiotics", "format": "cell-based, Escherichia coli", "conditions": "3 hours", "experimental": "Referring now simultaneously to FIG. 8A-FIG. 8C, phenotypic features in the recorded bacteria videos in the presence and absence of antibiotics are shown. […] Concentrations of PMB and aztreonam are 8 μg/mL and 0.5 μg/mL, respectively.\nIn principle, the raw bacterial videos could be used as inputs for a DL model, but the computational expense is impractical. In fact, few DL applications could use videos as input data directly even with high performance super-computers.^30-32 To overcome this difficulty, a method to compress the raw videos into static images without losing key phenotypic features was developed as described further below. This approach imitates human vision, which pre-processes raw images in the vision system to reduce complexity before passing them to the brain. The key phenotypic features in the video include cell division, motion, and morphology. […] Cell motion and morphology may also change when exposing the cell to antibiotics, thus serving as additional phenotypic features for AST. […]\nAST with video microscopy. […] Videos of the bacterial cells were recorded at 100 frames per second (fps) immediately (0 min) and after every 30 min. […] To include enough cells for reliable results, we integrated bacterial cells from three videos recorded from different experiments. […]"}, "[5]": {"test_system": "E. coli O157 model strain", "assay": "Susceptibility test with 40× optical microscope and imaging-processing algorithm tracking motion and growth", "format": "cell-based", "conditions": "@30 mins; concentrated bacterial samples", "from_the_text": "The inventors here have tested the susceptibility of E. coli O157 model strain to polymysin B (PMB, an antibiotic) using a 40× optical microscope. The individual bacterial cells 12 were identified, and their motions and growth were tracked using an imaging-processing algorithm. Inhibition curves were derived from the tracking data as shown below with respect to FIG. 4B and FIG. 4C. […] However, the experiment used concentrated bacterial samples, because the microscope has a small viewing size."}, "[6]": {"conditions": "division feature only, triplicate"}, "[7]": {"conditions": "E. coli spiked in urine, triplicate"}}}
{"compound": "CC1(C)S[C@@H]2[C@H](NC(=O)[C@H](N)c3ccccc3)C(=O)N2[C@H]1C(=O)O", "note": "[Ampicillin, ampicillin]", "values": [{"measurement": "MIC", "setting": "E. coli [1]; [6]", "result": 2, "unit": "µg/mL"}, {"measurement": "MIC", "setting": "E. coli [2]; [7]", "result": 2, "unit": "µg/mL"}, {"measurement": "MIC", "setting": "E. coli [3]", "result": 2, "unit": "µg/mL"}]}
{"compound": "C[C@H]1[C@H](NC(=O)/C(=N\\OC(C)(C)C(=O)O)c2csc(N)n2)C(=O)N1S(=O)(=O)O", "note": "[Aztreonam, aztreonam]", "values": [{"measurement": "effect on bacterial morphology", "setting": "E. coli [4]; aztreonam 0.5 μg/mL", "result": "caused the bacterial cells to elongate"}, {"measurement": "MIC", "setting": "E. coli [1]; [6]", "result": 0.12, "unit": "µg/mL"}, {"measurement": "MIC", "setting": "E. coli [2]; [7]", "result": 0.12, "unit": "µg/mL"}, {"measurement": "MIC", "setting": "E. coli [3]", "result": 0.12, "unit": "µg/mL"}]}
{"compound": "O=C(O)c1cn(C2CC2)c2cc(N3CCNCC3)c(F)cc2c1=O", "note": "[Ciprofloxacin, ciprofloxacin]", "values": [{"measurement": "MIC", "setting": "E. coli [1]; [6]", "result": "0.015 to 0.03", "unit": "µg/mL"}]}
{"compound": "[H]/N=C(/N)N[C@H]1[C@H](O)[C@@H](O)[C@H](O[C@@H]2O[C@@H](C)[C@](O)(C=O)[C@H]2O[C@@H]2O[C@@H](CO)[C@H](O)[C@@H](O)[C@@H]2NC)[C@@H](N/C(N)=N\\[H])[C@@H]1O", "note": "[Streptomycin, streptomycin]", "values": [{"measurement": "MIC", "setting": "E. coli [1]; [6]", "result": 4, "unit": "µg/mL"}, {"measurement": "MIC", "setting": "E. coli [2]; [7]", "result": 4, "unit": "µg/mL"}, {"measurement": "MIC", "setting": "E. coli [3]", "result": 4, "unit": "µg/mL"}]}
{"compound": "polymyxin B", "values": [{"measurement": "effect on bacterial motion", "setting": "E. coli [4]; PMB 8 μg/mL", "result": "decreased bacterial motion"}, {"measurement": "MIC from Ntotal vs. antibiotic concentration", "setting": "E. coli [1]; at 180 minutes, cell counting", "result": "~2", "unit": "µg/mL"}, {"measurement": "MIC, AST Without DL", "setting": "E. coli [1]; [6]", "result": "1 to 2", "unit": "µg/mL"}, {"measurement": "MIC, DLVM-AST", "setting": "E. coli [2]; [7]", "result": 2, "unit": "µg/mL"}, {"measurement": "MIC (concentration at which 90% of the bacterial cells are inhibited)", "setting": "E. coli [2]; obtained 30 minutes after antibiotic treatment", "result": 2, "unit": "µg/mL"}, {"measurement": "MIC", "setting": "[5]", "result": 2, "unit": "µg/mL"}, {"measurement": "MIC, BMD", "setting": "E. coli [3]", "result": 2, "unit": "µg/mL"}]}
